Experimental data published in ChEMBL document CHEMBL5512615, “Targeting autophagy drug discovery: Targets, indications and development trends” (Eur J Med Chem, 2024).
Values belong to the molecule of their own block, whether it stands above or below them.

Key:
[1] = molecular target: Ubiquitin carboxyl-terminal hydrolase 10 (Homo sapiens, UniProt Q14694); assay: Inhibition of USP10 (unknown origin)
[2] = molecular target: T1, Ubiquitin carboxyl-terminal hydrolase 13 (Homo sapiens, UniProt Q92995)
T1 sequence (Q92995 whole entry): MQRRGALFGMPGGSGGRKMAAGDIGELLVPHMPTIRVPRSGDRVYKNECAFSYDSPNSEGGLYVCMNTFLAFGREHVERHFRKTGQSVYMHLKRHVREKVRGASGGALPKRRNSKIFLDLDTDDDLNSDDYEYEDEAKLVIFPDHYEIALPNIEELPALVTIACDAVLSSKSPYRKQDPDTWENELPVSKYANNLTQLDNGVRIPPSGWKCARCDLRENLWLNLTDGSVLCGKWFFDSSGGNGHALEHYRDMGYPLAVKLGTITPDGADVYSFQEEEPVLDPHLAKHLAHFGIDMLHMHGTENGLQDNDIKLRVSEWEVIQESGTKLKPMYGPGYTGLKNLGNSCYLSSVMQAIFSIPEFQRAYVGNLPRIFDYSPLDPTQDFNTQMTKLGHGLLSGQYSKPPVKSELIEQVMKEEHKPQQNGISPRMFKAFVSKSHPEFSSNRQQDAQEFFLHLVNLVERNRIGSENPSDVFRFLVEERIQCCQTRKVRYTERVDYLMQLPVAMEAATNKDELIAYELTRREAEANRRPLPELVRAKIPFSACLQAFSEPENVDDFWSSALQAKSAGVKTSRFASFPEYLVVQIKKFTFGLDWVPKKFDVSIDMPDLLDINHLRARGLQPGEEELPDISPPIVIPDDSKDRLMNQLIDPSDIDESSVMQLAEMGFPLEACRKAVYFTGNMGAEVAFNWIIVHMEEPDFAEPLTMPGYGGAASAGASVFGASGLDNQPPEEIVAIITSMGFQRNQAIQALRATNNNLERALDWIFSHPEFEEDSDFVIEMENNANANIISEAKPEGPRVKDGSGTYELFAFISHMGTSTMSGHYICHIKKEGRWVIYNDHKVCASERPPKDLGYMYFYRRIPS
Description: Inhibition of USP13 (unknown origin)

[3] = molecular target: T2, Patatin-like phospholipase domain-containing protein 2 (Homo sapiens, UniProt Q96AD5)
T2 sequence (Q96AD5 whole entry): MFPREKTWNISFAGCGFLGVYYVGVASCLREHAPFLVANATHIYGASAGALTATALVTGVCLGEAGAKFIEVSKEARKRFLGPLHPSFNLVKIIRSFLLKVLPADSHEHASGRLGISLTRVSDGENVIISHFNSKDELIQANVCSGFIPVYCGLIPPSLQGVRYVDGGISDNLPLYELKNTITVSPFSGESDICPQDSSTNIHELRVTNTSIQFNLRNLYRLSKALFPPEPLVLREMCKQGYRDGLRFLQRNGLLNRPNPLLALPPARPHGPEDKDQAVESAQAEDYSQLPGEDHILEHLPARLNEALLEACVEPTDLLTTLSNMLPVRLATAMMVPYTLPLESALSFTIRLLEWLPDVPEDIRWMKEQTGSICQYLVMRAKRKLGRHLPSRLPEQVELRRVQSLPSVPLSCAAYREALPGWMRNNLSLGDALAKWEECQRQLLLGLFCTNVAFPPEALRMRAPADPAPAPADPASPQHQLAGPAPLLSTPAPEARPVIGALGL
Description: Inhibition of ATGL ubiquitination in human HepG2 cells assessed as inhibition constant

[4] = molecular target: Ferritin heavy chain (Homo sapiens, UniProt P02794)
Ferritin heavy chain, sequence (P02794 whole entry): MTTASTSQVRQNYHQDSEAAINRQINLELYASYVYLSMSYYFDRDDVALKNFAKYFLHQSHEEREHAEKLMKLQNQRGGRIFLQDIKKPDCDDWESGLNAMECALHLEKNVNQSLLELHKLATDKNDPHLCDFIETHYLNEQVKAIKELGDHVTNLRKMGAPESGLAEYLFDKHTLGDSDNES
Description: Inhibition of FTH1 (unknown origin)

[5] = molecular target: GABA-A receptor; anion channel
Description: Inhibition of GABA receptor (unknown origin)

[6] = tested on: A549; assay: cells; settings: Homo sapiens
Description: Antiproliferative activity against human A549 cells assessed as reduction in cell viability by MTT assay

Ubiquitin carboxyl-terminal hydrolase 10, sequence (Q14694 whole entry): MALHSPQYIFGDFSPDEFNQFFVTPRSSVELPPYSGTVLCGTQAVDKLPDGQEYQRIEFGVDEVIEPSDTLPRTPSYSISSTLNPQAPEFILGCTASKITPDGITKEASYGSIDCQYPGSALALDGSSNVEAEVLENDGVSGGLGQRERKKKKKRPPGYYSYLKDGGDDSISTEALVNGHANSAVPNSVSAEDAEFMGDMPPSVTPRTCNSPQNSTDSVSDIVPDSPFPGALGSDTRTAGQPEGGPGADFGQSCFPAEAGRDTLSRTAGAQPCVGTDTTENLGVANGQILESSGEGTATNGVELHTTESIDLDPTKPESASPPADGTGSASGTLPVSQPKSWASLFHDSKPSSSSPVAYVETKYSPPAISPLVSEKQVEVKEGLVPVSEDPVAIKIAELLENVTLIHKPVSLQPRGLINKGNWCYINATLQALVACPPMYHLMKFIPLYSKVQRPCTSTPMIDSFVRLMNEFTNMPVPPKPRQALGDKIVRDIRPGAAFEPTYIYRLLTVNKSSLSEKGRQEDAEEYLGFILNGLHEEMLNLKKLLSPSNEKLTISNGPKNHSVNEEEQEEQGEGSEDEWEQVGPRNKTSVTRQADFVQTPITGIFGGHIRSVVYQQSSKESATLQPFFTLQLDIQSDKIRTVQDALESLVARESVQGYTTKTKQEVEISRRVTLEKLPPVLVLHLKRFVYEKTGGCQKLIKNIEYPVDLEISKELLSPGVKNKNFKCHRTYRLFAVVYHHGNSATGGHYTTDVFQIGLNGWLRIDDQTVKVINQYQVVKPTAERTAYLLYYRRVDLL

Compound: Fc1ccc(CNc2ncnc3ccc(F)cc23)cc1
- IC50 [1]: 580 nM
- IC50 [2]: 690 nM

Compound: N[C@@H]1CCCN(c2c(/C=C3\SC(=O)NC3=O)cccc2-c2ccccc2)C1
- Ki [3]: 0.017 nM

Compound: C=C1CC[C@H]2O[C@]2(C)CC[C@@H]2[C@@H]1CC2(C)C [(-)-CARYOPHYLLENE OXIDE]
- IC50 [4]: 1 nM

Other lines, results leading:

- IC50 [5]: 5900 nM
Compound: C[C@H]1[C@H](C)CC[C@]2(C(=O)O)CC[C@]3(C)C(=CC[C@@H]4[C@@]5(C)C[C@@H](O)[C@H](O)[C@@](C)(CO)[C@@H]5CC[C@]43C)[C@H]12 [ASIATIC ACID]

- EC50 [6]: 3 nM
Compound: OC[C@H]1O[C@@H](c2ccc(Cl)c(Cc3ccc(O[C@H]4CCOC4)cc3)c2)[C@H](O)[C@@H](O)[C@@H]1O [EMPAGLIFLOZIN]
